Publication PMC7211202 (Investigational New Drugs, 2019)
Values joined by “and” are separate entries in the source; they are usually repeats but may differ in a detail not shown here. Equal values may be shown once.

Test: Patient incidence of adverse events (CTCAE version 4.0)
Assay type: in vivo
Excerpt: Each patient was monitored for 21 days for the occurrence of dose-limiting toxicities (DLTs), defined as febrile neutropenia, neutropenic infection, grade 4 neutropenia lasting >7 days, grade ≥ 3 thrombocytopenia lasting >7 days (solid tumors only), grade 3 thrombocytopenia with grade ≥ 2 bleeding (solid tumors only), grade 3 or 4 thrombocytopenia with grade > 1 bleeding (multiple myeloma only), grade 4 thrombocytopenia (solid tumors only), or grade 4 thrombocytopenia lasting >14 days (multiple myeloma only), or as grade ≥ 3 nausea, vomiting, or diarrhea after support; grade 3 fatigue lasting >7 days; any other grade ≥ 3 adverse event (AE); grade ≥ 3 kidney injury (multiple myeloma only), or treatment-related AEs not returning to grade ≤ 1 (solid tumors only) per Common Terminology Criteria for Adverse Events (CTCAE), version 4.0. The MTD was defined as the maximum dose, at which the probability of a DLT was ≤25% in Part 1A and ≤ 33% in Parts 1B and 1C. Treatment continued until disease progression, intolerable toxicity, or withdrawal of consent.
AEs were recorded for all enrolled patients.

[1] = 240-mg dose expansion, Other Solid (n = 16)
[2] = 240-mg dose expansion, Total (n = 68)
[3] = 240-mg dose expansion, WDLPS (n = 10)
[4] = 240-mg dose expansion, all patients

CC(C)[C@@H](CS(=O)(=O)C(C)C)N1C(=O)[C@@](C)(CC(=O)O)C[C@H](c2cccc(Cl)c2)[C@H]1c1ccc(Cl)cc1 [AMG 232]
Serious, treatment-related AE: Hyperlipasemia (grade 3) [1]: 0 n (%)
Serious, treatment-related AE: Nausea (grade 3) [1]: 0 n (%)
Serious, treatment-related AE: Pulmonary embolism (grade 3) [1]: 0 n (%)
Serious, treatment-related AE: Vomiting (grade 3) [1]: 0 n (%)
Treatment-related AE: Anemia [1]: 3 (19) n (%)
Treatment-related AE: Asthenia [1]: 2 (13) n (%)
Treatment-related AE: Decrease appetite [1]: 4 (25) n (%)
Treatment-related AE: Diarrhea [1]: 8 (50) n (%)
Treatment-related AE: Dysgeusia [1]: 2 (13) n (%)
Treatment-related AE: Fatigue [1]: 6 (38) n (%)
Treatment-related AE: Nausea [1]: 11 (69) n (%)
Treatment-related AE: Neutropenia [1]: 1 (6) n (%)
Treatment-related AE: Thrombocytopenia [1]: 2 (13) n (%)
Treatment-related AE: Vomiting [1]: 8 (50) n (%)
Patients with any treatment-emergent AE [2]: 67 (99%) n (%) and 67 (99) n (%)
Patients with any treatment-emergent serious AE [2]: 29 (43%) n (%) and 29 (43) n (%)
Patients with any treatment-related AE, Grade 3 [2]: 25 (37) n (%)
Patients with any treatment-related AE, Grade 4 [2]: 8 (12) n (%)
Patients with any treatment-related AE, Grade 5 [2]: 0 n (%)
Serious, treatment-related AE: Dehydration (grade 3) [2]: 1 (2) n (%)
Serious, treatment-related AE: Diarrhea (grade 3) [2]: 1 (2) n (%)
Serious, treatment-related AE: Hyperamylasemia (grade 3) [2]: 1 (2) n (%)
Serious, treatment-related AE: Hyperlipasemia (grade 3) [2]: 1 (2) n (%)
Serious, treatment-related AE: Nausea (grade 3) [2]: 1 (2) n (%)
Serious, treatment-related AE: Pulmonary embolism (grade 3) [2]: 1 (2) n (%)
Serious, treatment-related AE: Vomiting (grade 3) [2]: 3 (4) n (%)
Treatment-related AE: Anemia [2]: 10 (15) n (%)
Treatment-related AE: Asthenia [2]: 9 (13) n (%)
Treatment-related AE: Decrease appetite [2]: 28 (41) n (%)
Treatment-related AE: Diarrhea [2]: 46 (68) n (%)
Treatment-related AE: Dysgeusia [2]: 9 (13) n (%)
Treatment-related AE: Fatigue [2]: 32 (47) n (%)
Treatment-related AE: Nausea [2]: 46 (68) n (%)
Treatment-related AE: Neutropenia [2]: 12 (18) n (%)
Treatment-related AE: Thrombocytopenia [2]: 14 (21) n (%)
Treatment-related AE: Vomiting [2]: 32 (47) n (%)
Patients with any serious, treatment-related AE [3]: 2 (20) n (%)
Patients with any treatment-emergent AE [3]: 10 (100) n (%)
Patients with any treatment-emergent serious AE [3]: 5 (50) n (%)
Patients with any treatment-related AE [3]: 10 (100) n (%)
Patients with any treatment-related AE, Grade 3 [3]: 6 (60) n (%)
Patients with any treatment-related AE, Grade 4 [3]: 3 (30) n (%)
Patients with any treatment-related AE, Grade 5 [3]: 0 n (%)
Serious, treatment-related AE: Dehydration (grade 3) [3]: 1 (10) n (%)
Serious, treatment-related AE: Diarrhea (grade 3) [3]: 0 n (%)
Serious, treatment-related AE: Hyperamylasemia (grade 3) [3]: 0 n (%)
Serious, treatment-related AE: Hyperlipasemia (grade 3) [3]: 0 n (%)
Serious, treatment-related AE: Nausea (grade 3) [3]: 0 n (%)
Serious, treatment-related AE: Pulmonary embolism (grade 3) [3]: 1 (10) n (%)
Serious, treatment-related AE: Vomiting (grade 3) [3]: 0 n (%)
Treatment-related AE: Anemia [3]: 5 (50) n (%)
Treatment-related AE: Asthenia [3]: 0 n (%)
Treatment-related AE: Decrease appetite [3]: 7 (70) n (%)
Treatment-related AE: Diarrhea [3]: 9 (90) n (%)
Treatment-related AE: Dysgeusia [3]: 1 (10) n (%)
Treatment-related AE: Fatigue [3]: 8 (80) n (%)
Treatment-related AE: Nausea [3]: 10 (100) n (%)
Treatment-related AE: Thrombocytopenia [3]: 6 (60) n (%)
Treatment-related AE: Vomiting [3]: 7 (70) n (%)
Treatment-emergent AE: anemia [4]: 25%
Treatment-emergent AE: decreased appetite [4]: 41%
Treatment-emergent AE: diarrhea [4]: 72%
Treatment-emergent AE: fatigue [4]: 53%
Treatment-emergent AE: nausea [4]: 72%
Treatment-emergent AE: thrombocytopenia [4]: 24%
Treatment-emergent AE: vomiting [4]: 59%
Treatment-related AE: Diarrhea [4]: 68%
Treatment-related AE: Fatigue [4]: 47%
Treatment-related AE: Nausea [4]: 68%
Treatment-related AE: Thrombocytopenia [4]: 21%
Treatment-related AE: Vomiting [4]: 47%
Treatment-related AE: decreased appetite [4]: 41%
Patients with fatal AEs while on study (240-mg dose expansion, two with disease progression and one with physical deterioration): Three
AE resulting in treatment discontinuation: febrile neutropenia (dose escalation): 1 n
AE resulting in treatment discontinuation: neutropenia (dose escalation): 2 n
AE resulting in treatment discontinuation: thrombocytopenia (dose escalation): 5 n
Patients with AEs resulting in treatment discontinuation (dose escalation): eight
Patients with fatal AEs of disease progression while on study (dose escalation): Four
Patients with any treatment-emergent AE (dose escalation, 15 mg (n = 3)): 1 (33) n (%)
Patients with any treatment-emergent serious AE (dose escalation, 15 mg (n = 3)): 1 (33) n (%)
Patients with any treatment-related AE (dose escalation, 15 mg (n = 3)): 1 (33) n (%)
Patients with any treatment-related AE, Grade 3 (dose escalation, 15 mg (n = 3)): 0 n (%)
Patients with any treatment-related AE, Grade 4 (dose escalation, 15 mg (n = 3)): 0 n (%)
Patients with any treatment-related AE, Grade 5 (dose escalation, 15 mg (n = 3)): 0 n (%)
Patients with any treatment-related serious AE (dose escalation, 15 mg (n = 3)): 0 n (%)
Treatment-related AE: Abdominal pain (dose escalation, 15 mg (n = 3)): 0 n (%)
Treatment-related AE: Anemia (dose escalation, 15 mg (n = 3)): 0 n (%)
Treatment-related AE: Asthenia (dose escalation, 15 mg (n = 3)): 0 n (%)
Treatment-related AE: Decrease appetite (dose escalation, 15 mg (n = 3)): 0 n (%)
Treatment-related AE: Diarrhea (dose escalation, 15 mg (n = 3)): 0 n (%)
Treatment-related AE: Dysgeusia (dose escalation, 15 mg (n = 3)): 0 n (%)
Treatment-related AE: Fatigue (dose escalation, 15 mg (n = 3)): 1 (33) n (%)
Treatment-related AE: Myalgia (dose escalation, 15 mg (n = 3)): 0 n (%)
Treatment-related AE: Nausea (dose escalation, 15 mg (n = 3)): 0 n (%)
Treatment-related AE: Neutropenia (dose escalation, 15 mg (n = 3)): 0 n (%)
Treatment-related AE: Thrombocytopenia (dose escalation, 15 mg (n = 3)): 0 n (%)
Treatment-related AE: Upper abdominal pain (dose escalation, 15 mg (n = 3)): 0 n (%)
Treatment-related AE: Vomiting (dose escalation, 15 mg (n = 3)): 0 n (%)
Treatment-related serious AE: Abdominal pain (grade 2) (dose escalation, 15 mg (n = 3)): 0 n (%)
Treatment-related serious AE: Dehydration (grade 2) (dose escalation, 15 mg (n = 3)): 0 n (%)
Treatment-related serious AE: Diarrhea (dose escalation, 15 mg (n = 3)): 0 n (%)
Treatment-related serious AE: Diarrhea, Grade 2 (dose escalation, 15 mg (n = 3)): 0 n (%)
Treatment-related serious AE: Diarrhea, Grade 3 (dose escalation, 15 mg (n = 3)): 0 n (%)
Treatment-related serious AE: Febrile neutropenia (grade 3) (dose escalation, 15 mg (n = 3)): 0 n (%)
Treatment-related serious AE: Hematemesis (grade 3) (dose escalation, 15 mg (n = 3)): 0 n (%)
Treatment-related serious AE: Nausea (grade 3) (dose escalation, 15 mg (n = 3)): 0 n (%)
Treatment-related serious AE: Neutropenia (grade 4) (dose escalation, 15 mg (n = 3)): 0 n (%)
Treatment-related serious AE: Non-cardiac chest pain (grade 3) (dose escalation, 15 mg (n = 3)): 0 n (%)
Treatment-related serious AE: Thrombocytopenia (grade 4) (dose escalation, 15 mg (n = 3)): 0 n (%)
Treatment-related serious AE: Vomiting (dose escalation, 15 mg (n = 3)): 0 n (%)
Treatment-related serious AE: Vomiting, Grade 2 (dose escalation, 15 mg (n = 3)): 0 n (%)
Treatment-related serious AE: Vomiting, Grade 3 (dose escalation, 15 mg (n = 3)): 0 n (%)
Patients with any treatment-emergent AE (dose escalation, 30 mg (n = 3)): 3 (100) n (%)
Patients with any treatment-emergent serious AE (dose escalation, 30 mg (n = 3)): 0 n (%)
Patients with any treatment-related AE (dose escalation, 30 mg (n = 3)): 1 (33) n (%)
Patients with any treatment-related AE, Grade 3 (dose escalation, 30 mg (n = 3)): 0 n (%)
Patients with any treatment-related AE, Grade 4 (dose escalation, 30 mg (n = 3)): 0 n (%)
Patients with any treatment-related AE, Grade 5 (dose escalation, 30 mg (n = 3)): 0 n (%)
Patients with any treatment-related serious AE (dose escalation, 30 mg (n = 3)): 0 n (%)
Treatment-related AE: Abdominal pain (dose escalation, 30 mg (n = 3)): 0 n (%)
Treatment-related AE: Anemia (dose escalation, 30 mg (n = 3)): 0 n (%)
Treatment-related AE: Asthenia (dose escalation, 30 mg (n = 3)): 0 n (%)
Treatment-related AE: Decrease appetite (dose escalation, 30 mg (n = 3)): 0 n (%)
Treatment-related AE: Diarrhea (dose escalation, 30 mg (n = 3)): 1 (33) n (%)
Treatment-related AE: Dysgeusia (dose escalation, 30 mg (n = 3)): 0 n (%)
Treatment-related AE: Fatigue (dose escalation, 30 mg (n = 3)): 1 (33) n (%)
Treatment-related AE: Myalgia (dose escalation, 30 mg (n = 3)): 0 n (%)
Treatment-related AE: Nausea (dose escalation, 30 mg (n = 3)): 1 (33) n (%)
Treatment-related AE: Neutropenia (dose escalation, 30 mg (n = 3)): 0 n (%)
Treatment-related AE: Thrombocytopenia (dose escalation, 30 mg (n = 3)): 0 n (%)
Treatment-related AE: Upper abdominal pain (dose escalation, 30 mg (n = 3)): 0 n (%)
Treatment-related AE: Vomiting (dose escalation, 30 mg (n = 3)): 1 (33) n (%)
Treatment-related serious AE: Abdominal pain (grade 2) (dose escalation, 30 mg (n = 3)): 0 n (%)
